{"source": "ChEMBL document CHEMBL5649169", "about": "(ChemMedChem, 2018); further: assay method not described here", "key": {"[1]": {"target": "Protein kinase C beta type (Homo sapiens) (UniProt P05771)", "sequence (P05771 2-671 limits assumed)": "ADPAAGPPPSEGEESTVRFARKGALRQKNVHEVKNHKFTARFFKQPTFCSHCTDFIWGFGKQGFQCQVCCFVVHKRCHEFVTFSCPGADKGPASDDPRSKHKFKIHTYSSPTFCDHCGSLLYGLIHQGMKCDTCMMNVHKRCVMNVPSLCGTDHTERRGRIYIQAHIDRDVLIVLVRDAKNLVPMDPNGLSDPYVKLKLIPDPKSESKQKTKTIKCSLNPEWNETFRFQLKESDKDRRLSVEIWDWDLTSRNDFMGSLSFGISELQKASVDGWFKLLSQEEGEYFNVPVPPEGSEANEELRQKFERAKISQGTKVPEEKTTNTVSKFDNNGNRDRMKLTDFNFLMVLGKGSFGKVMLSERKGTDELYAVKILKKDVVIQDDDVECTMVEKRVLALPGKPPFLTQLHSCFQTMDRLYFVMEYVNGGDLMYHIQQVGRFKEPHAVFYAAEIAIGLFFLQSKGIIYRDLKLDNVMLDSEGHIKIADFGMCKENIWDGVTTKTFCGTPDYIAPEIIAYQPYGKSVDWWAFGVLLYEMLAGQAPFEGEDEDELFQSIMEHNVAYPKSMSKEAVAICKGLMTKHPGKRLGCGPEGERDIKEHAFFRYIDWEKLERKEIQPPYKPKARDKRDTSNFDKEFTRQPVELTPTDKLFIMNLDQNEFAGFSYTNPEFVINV"}, "[2]": {"target": "Non-selective voltage-gated ion channel VDAC3 (Homo sapiens) (UniProt Q9Y277)", "sequence (Q9Y277 whole entry)": "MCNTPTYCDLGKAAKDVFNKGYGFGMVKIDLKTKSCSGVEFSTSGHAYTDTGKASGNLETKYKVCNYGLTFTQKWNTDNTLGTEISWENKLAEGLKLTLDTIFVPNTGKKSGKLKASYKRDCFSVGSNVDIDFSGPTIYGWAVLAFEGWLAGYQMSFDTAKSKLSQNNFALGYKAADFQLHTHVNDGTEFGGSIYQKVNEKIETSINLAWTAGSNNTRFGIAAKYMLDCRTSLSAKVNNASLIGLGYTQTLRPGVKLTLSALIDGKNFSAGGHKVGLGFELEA"}, "[3]": {"target": "Heterogeneous nuclear ribonucleoprotein M (Homo sapiens) (UniProt P52272)"}, "[4]": {"target": "116 kDa U5 small nuclear ribonucleoprotein component (Homo sapiens) (UniProt Q15029)"}, "[5]": {"target": "Protein RRP5 homolog (Homo sapiens) (UniProt Q14690)"}, "[6]": {"target": "CCR4-NOT transcription complex subunit 1 (Homo sapiens) (UniProt A5YKK6)"}, "[7]": {"target": "Serine/arginine-rich splicing factor 6 (Homo sapiens) (UniProt Q13247)"}, "[8]": {"target": "DnaJ homolog subfamily C member 10 (Homo sapiens) (UniProt Q8IXB1)"}, "[9]": {"target": "Neutral alpha-glucosidase AB (Homo sapiens) (UniProt Q14697)"}, "[10]": {"target": "Conserved oligomeric Golgi complex subunit 1 (Homo sapiens) (UniProt Q8WTW3)"}, "[11]": {"target": "Protein-tyrosine kinase 2-beta (Homo sapiens) (UniProt Q14289)"}, "Cyclin-T2 (Homo sapiens)": {"target": "Cyclin-T2 (Homo sapiens) (UniProt O60583)", "sequence (O60583 whole entry)": "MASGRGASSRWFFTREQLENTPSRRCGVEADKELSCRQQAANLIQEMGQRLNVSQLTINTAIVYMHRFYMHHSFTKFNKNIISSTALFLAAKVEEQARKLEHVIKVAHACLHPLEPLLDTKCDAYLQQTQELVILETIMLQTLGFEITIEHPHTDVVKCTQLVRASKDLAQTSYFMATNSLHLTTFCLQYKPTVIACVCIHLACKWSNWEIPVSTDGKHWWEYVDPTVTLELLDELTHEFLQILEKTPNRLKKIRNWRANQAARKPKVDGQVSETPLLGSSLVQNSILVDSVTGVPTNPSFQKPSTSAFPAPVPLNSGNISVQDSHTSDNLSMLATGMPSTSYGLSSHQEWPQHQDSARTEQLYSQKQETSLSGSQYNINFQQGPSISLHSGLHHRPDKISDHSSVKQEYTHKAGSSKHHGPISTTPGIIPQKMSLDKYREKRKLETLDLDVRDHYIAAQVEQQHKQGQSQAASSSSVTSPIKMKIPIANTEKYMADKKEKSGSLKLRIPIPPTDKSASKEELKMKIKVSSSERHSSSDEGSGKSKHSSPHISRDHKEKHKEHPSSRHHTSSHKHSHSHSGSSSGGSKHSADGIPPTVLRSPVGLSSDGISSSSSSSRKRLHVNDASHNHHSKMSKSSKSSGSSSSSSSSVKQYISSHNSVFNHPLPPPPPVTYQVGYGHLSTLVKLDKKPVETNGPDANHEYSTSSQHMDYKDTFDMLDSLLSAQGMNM"}, "[12]": {"target": "DAZ-associated protein 1 (Homo sapiens) (UniProt Q96EP5)"}, "[13]": {"target": "Structural maintenance of chromosomes protein 3 (Homo sapiens) (UniProt Q9UQE7)"}, "[14]": {"target": "Translocon-associated protein subunit gamma (Homo sapiens) (UniProt Q9UNL2)"}, "[15]": {"target": "Mitogen-activated protein kinase 10 (Homo sapiens) (UniProt P53779)"}, "[16]": {"target": "Non-receptor tyrosine-protein kinase TYK2 (Homo sapiens) (UniProt P29597)"}, "[17]": {"target": "Thioredoxin-dependent peroxide reductase, mitochondrial (Homo sapiens) (UniProt P30048)"}, "[18]": {"target": "mRNA turnover protein 4 homolog (Homo sapiens) (UniProt Q9UKD2)"}, "[19]": {"target": "GPI-anchor transamidase (Homo sapiens) (UniProt Q92643)"}, "[20]": {"target": "DNA replication licensing factor MCM5 (Homo sapiens) (UniProt P33992)"}, "[21]": {"target": "Tubulin-specific chaperone D (Homo sapiens) (UniProt Q9BTW9)"}, "[22]": {"target": "Serine/threonine-protein kinase B-raf (Homo sapiens) (UniProt P15056)"}, "[23]": {"target": "Replication factor C subunit 3 (Homo sapiens) (UniProt P40938)", "sequence (P40938 whole entry)": "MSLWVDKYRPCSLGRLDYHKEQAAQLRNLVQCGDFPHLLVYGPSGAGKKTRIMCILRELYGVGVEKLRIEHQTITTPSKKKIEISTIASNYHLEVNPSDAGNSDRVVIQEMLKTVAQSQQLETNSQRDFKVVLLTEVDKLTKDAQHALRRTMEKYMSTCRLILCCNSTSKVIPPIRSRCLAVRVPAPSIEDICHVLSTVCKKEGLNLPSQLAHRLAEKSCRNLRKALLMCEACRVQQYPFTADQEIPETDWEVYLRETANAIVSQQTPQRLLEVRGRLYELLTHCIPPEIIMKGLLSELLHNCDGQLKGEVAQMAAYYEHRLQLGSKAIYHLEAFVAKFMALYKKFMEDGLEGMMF"}, "[24]": {"target": "Dipeptidyl peptidase 1 (Homo sapiens) (UniProt P53634)", "sequence (P53634 25-134 limits assumed)": "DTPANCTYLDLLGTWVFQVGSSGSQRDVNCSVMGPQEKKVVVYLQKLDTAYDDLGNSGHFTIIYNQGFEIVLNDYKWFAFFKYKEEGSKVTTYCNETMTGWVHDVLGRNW", "sequence (P53634 231-394 limits assumed)": "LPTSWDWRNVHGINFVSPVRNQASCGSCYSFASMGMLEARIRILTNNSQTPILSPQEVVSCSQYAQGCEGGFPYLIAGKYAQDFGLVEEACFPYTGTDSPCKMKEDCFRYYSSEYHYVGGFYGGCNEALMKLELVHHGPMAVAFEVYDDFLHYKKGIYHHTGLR", "sequence (P53634 395-463 limits assumed)": "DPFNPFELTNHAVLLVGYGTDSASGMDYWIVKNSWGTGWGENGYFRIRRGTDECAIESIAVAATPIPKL"}, "[25]": {"target": "ADP/ATP translocase 1 (Homo sapiens) (UniProt P12235)", "sequence (P12235 whole entry)": "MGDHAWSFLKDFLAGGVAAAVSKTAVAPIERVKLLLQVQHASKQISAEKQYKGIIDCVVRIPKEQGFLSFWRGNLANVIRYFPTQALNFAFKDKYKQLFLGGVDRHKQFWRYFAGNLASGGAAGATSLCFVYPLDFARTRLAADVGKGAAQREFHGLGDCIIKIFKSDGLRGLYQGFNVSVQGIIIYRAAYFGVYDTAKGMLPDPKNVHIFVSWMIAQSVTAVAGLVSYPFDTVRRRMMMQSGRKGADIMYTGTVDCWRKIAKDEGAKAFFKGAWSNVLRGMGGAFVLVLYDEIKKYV"}, "[26]": {"target": "Antigen peptide transporter 2 (Homo sapiens) (UniProt Q03519)"}, "[27]": {"target": "Ubiquitin-associated protein 2 (Homo sapiens) (UniProt Q5T6F2)"}, "[28]": {"target": "Protein unc-119 homolog A (Homo sapiens) (UniProt Q13432)"}, "[29]": {"target": "Cyclin-dependent kinase 3 (Homo sapiens) (UniProt Q00526)", "sequence (Q00526 whole entry, looked up)": "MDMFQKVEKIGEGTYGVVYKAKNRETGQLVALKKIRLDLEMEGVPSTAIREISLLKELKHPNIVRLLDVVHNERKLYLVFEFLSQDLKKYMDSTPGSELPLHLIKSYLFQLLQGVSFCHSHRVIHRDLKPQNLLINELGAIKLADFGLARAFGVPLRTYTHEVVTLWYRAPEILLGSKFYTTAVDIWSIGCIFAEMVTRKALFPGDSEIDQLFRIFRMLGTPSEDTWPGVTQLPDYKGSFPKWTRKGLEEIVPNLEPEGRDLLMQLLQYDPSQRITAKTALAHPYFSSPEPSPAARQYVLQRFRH"}, "[30]": {"target": "Cyclin-dependent kinase 9 (Homo sapiens) (UniProt P50750)", "sequence (P50750 whole entry)": "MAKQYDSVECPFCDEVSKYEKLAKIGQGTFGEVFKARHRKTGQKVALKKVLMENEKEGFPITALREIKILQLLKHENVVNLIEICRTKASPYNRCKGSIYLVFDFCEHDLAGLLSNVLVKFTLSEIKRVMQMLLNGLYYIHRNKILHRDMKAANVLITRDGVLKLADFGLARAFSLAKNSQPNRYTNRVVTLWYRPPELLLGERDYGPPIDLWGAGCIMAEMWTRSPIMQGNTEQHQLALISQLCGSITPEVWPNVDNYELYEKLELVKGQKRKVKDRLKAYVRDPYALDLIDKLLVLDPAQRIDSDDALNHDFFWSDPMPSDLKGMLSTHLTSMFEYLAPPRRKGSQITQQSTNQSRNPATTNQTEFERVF"}, "[31]": {"target": "Ceroid-lipofuscinosis neuronal protein 6 (Homo sapiens) (UniProt Q9NWW5)", "sequence (Q9NWW5 whole entry)": "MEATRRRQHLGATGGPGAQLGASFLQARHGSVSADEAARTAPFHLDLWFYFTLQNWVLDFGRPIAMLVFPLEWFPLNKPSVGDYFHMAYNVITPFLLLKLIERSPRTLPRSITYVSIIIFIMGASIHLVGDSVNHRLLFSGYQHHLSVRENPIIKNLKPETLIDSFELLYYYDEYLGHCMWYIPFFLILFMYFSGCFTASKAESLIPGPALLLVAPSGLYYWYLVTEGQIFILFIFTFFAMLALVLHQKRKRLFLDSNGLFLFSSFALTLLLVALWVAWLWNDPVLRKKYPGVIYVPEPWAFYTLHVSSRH"}, "[32]": {"target": "Heat shock protein HSP 90-beta (Homo sapiens) (UniProt P08238)", "sequence (P08238 whole entry)": "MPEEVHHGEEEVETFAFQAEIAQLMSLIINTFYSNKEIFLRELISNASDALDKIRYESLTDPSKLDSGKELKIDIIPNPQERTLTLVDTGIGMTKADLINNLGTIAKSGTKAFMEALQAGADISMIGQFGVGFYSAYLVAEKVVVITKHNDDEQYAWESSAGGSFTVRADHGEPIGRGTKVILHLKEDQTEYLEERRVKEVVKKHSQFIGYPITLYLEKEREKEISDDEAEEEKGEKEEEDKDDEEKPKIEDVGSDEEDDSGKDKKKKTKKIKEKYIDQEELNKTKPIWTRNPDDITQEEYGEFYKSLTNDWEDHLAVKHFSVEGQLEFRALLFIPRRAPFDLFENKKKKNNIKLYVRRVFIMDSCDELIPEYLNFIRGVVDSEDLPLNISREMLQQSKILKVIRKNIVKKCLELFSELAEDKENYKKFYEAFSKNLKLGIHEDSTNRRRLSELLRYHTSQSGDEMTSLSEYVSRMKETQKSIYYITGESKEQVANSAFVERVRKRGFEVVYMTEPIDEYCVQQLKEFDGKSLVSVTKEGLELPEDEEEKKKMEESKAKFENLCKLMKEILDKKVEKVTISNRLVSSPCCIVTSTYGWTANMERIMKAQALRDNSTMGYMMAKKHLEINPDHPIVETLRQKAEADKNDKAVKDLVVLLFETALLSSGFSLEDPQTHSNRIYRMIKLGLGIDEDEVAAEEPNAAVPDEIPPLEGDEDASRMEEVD"}, "[33]": {"target": "Calcium-binding protein 39 (Homo sapiens) (UniProt Q9Y376)"}, "[34]": {"target": "Epidermal growth factor receptor (Homo sapiens) (UniProt P00533)"}, "[35]": {"target": "T-complex protein 1 subunit eta (Homo sapiens) (UniProt Q99832)"}, "[36]": {"target": "C2 domain-containing protein 5 (Homo sapiens) (UniProt Q86YS7)"}, "[37]": {"target": "E3 ubiquitin/ISG15 ligase TRIM25 (Homo sapiens) (UniProt Q14258)"}, "[38]": {"target": "Pre-mRNA-processing factor 40 homolog A (Homo sapiens) (UniProt O75400)"}, "[39]": {"target": "Phosphatidylinositol 5-phosphate 4-kinase type-2 alpha (Homo sapiens) (UniProt P48426)", "sequence (P48426 whole entry)": "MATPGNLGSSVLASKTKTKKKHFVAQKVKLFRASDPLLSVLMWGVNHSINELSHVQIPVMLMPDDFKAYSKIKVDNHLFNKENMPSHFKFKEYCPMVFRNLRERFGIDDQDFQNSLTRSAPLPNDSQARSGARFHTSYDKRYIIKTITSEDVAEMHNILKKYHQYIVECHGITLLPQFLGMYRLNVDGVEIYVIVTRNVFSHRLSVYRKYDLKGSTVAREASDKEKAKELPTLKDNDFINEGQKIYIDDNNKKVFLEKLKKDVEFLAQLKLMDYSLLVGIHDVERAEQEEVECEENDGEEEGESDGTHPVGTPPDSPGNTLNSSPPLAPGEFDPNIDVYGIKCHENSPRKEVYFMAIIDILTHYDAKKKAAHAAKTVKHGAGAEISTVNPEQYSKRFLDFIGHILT"}, "[40]": {"target": "Histone deacetylase 1 (Homo sapiens) (UniProt Q13547)"}, "[41]": {"target": "Calcium/calmodulin-dependent protein kinase type II subunit delta (Homo sapiens) (UniProt Q13557)"}, "Emerin (Homo sapiens)": {"target": "Emerin (Homo sapiens) (UniProt P50402)"}, "[42]": {"target": "Aromatic-L-amino-acid decarboxylase (Homo sapiens) (UniProt P20711)"}, "[43]": {"target": "Phenylalanine--tRNA ligase alpha subunit (Homo sapiens) (UniProt Q9Y285)"}, "[44]": {"target": "Nucleolar complex protein 2 homolog (Homo sapiens) (UniProt Q9Y3T9)"}}}
{"smiles": "Cc1ccc(C(=O)Nc2cccc(C(F)(F)F)c2)cc1Nc1nc(-c2cccnc2)nc2c1cnn2C", "values": [{"measurement": "ED50", "setting": "[1]", "value": 10.9, "unit": "µM"}, {"measurement": "ED50", "setting": "[2]", "value": 0.745, "unit": "µM"}, {"measurement": "ED50", "setting": "[3]", "value": 8.57, "unit": "µM"}, {"measurement": "ED50", "setting": "[4]", "value": 0.108, "unit": "µM"}, {"measurement": "ED50", "setting": "[5]", "value": 0.0339, "unit": "µM"}, {"measurement": "ED50", "setting": "[6]", "value": 0.0688, "unit": "µM"}, {"measurement": "ED50", "setting": "[7]", "value": 5.98, "unit": "µM"}, {"measurement": "ED50", "setting": "[8]", "value": 4930, "unit": "µM"}, {"measurement": "ED50", "setting": "[9]", "value": 4.09, "unit": "µM"}, {"measurement": "ED50", "setting": "[10]", "value": 0.0039, "unit": "µM"}, {"measurement": "ED50", "setting": "[11]", "value": 0.433, "unit": "µM"}, {"measurement": "ED50", "setting": "Cyclin-T2 (Homo sapiens)", "value": 12.8, "unit": "µM"}, {"measurement": "ED50", "setting": "[12]", "value": 0.124, "unit": "µM"}, {"measurement": "ED50", "setting": "[13]", "value": 0.0434, "unit": "µM"}, {"measurement": "ED50", "setting": "[14]", "value": 12.7, "unit": "µM"}, {"measurement": "ED50", "setting": "[15]", "value": 32.9, "unit": "µM"}, {"measurement": "ED50", "setting": "[16]", "value": 69.7, "unit": "µM"}, {"measurement": "ED50", "setting": "[17]", "value": 0.164, "unit": "µM"}, {"measurement": "ED50", "setting": "[18]", "value": 10.8, "unit": "µM"}, {"measurement": "ED50", "setting": "[19]", "value": 3.43, "unit": "µM"}, {"measurement": "ED50", "setting": "[20]", "value": 6.51, "unit": "µM"}, {"measurement": "ED50", "setting": "[21]", "value": 0.00459, "unit": "µM"}, {"measurement": "ED50", "setting": "[22]", "value": 3.64, "unit": "µM"}, {"measurement": "ED50", "setting": "[23]", "value": 0.485, "unit": "µM"}, {"measurement": "ED50", "setting": "[24]", "value": 0.0113, "unit": "µM"}, {"measurement": "ED50", "setting": "[25]", "value": 1.74, "unit": "µM"}, {"measurement": "ED50", "setting": "[26]", "value": 10.3, "unit": "µM"}, {"measurement": "ED50", "setting": "[27]", "value": 111, "unit": "µM"}, {"measurement": "ED50", "setting": "[28]", "value": 0.46, "unit": "µM"}, {"measurement": "ED50", "setting": "[29]", "value": 0.134, "unit": "µM"}, {"measurement": "ED50", "setting": "[30]", "value": 4.6, "unit": "µM"}, {"measurement": "ED50", "setting": "[31]", "value": 12.5, "unit": "µM"}, {"measurement": "ED50", "setting": "[32]", "value": 0.000546, "unit": "µM"}, {"measurement": "ED50", "setting": "[33]", "value": 0.157, "unit": "µM"}, {"measurement": "ED50", "setting": "[34]", "value": 0.114, "unit": "µM"}, {"measurement": "ED50", "setting": "[35]", "value": 50.3, "unit": "µM"}, {"measurement": "ED50", "setting": "[36]", "value": 0.0177, "unit": "µM"}, {"measurement": "ED50", "setting": "[37]", "value": 401, "unit": "µM"}, {"measurement": "ED50", "setting": "[38]", "value": 0.0134, "unit": "µM"}, {"measurement": "ED50", "setting": "[39]", "value": 0.0993, "unit": "µM"}, {"measurement": "ED50", "setting": "[40]", "value": 5.81, "unit": "µM"}, {"measurement": "ED50", "setting": "[41]", "value": 0.11, "unit": "µM"}, {"measurement": "ED50", "setting": "Emerin (Homo sapiens)", "value": 45.5, "unit": "µM"}, {"measurement": "ED50", "setting": "[42]", "value": 0.0409, "unit": "µM"}, {"measurement": "ED50", "setting": "[43]", "value": 0.0419, "unit": "µM"}, {"measurement": "ED50", "setting": "[44]", "value": 0.637, "unit": "µM"}]}
{"smiles": "Cc1ccc(C(=O)Nc2cccc(C(F)(F)F)c2)cc1Nc1nc(-c2cccnc2)nc2nn(C)cc12", "values": [{"measurement": "ED50", "setting": "[1]", "value": 0.875, "unit": "µM"}, {"measurement": "ED50", "setting": "[2]", "value": 0.0233, "unit": "µM"}, {"measurement": "ED50", "setting": "[3]", "value": 13.5, "unit": "µM"}, {"measurement": "ED50", "setting": "[4]", "value": 0.0593, "unit": "µM"}, {"measurement": "ED50", "setting": "[5]", "value": 0.0717, "unit": "µM"}, {"measurement": "ED50", "setting": "[6]", "value": 0.0203, "unit": "µM"}, {"measurement": "ED50", "setting": "[7]", "value": 32.5, "unit": "µM"}, {"measurement": "ED50", "setting": "[8]", "value": 3.27, "unit": "µM"}, {"measurement": "ED50", "setting": "[9]", "value": 0.0402, "unit": "µM"}, {"measurement": "ED50", "setting": "[10]", "value": 69.8, "unit": "µM"}, {"measurement": "ED50", "setting": "[11]", "value": 36.6, "unit": "µM"}, {"measurement": "ED50", "setting": "Cyclin-T2 (Homo sapiens)", "value": 0.0632, "unit": "µM"}, {"measurement": "ED50", "setting": "[12]", "value": 0.0265, "unit": "µM"}, {"measurement": "ED50", "setting": "[13]", "value": 0.431, "unit": "µM"}, {"measurement": "ED50", "setting": "[14]", "value": 0.0505, "unit": "µM"}, {"measurement": "ED50", "setting": "[15]", "value": 1.72, "unit": "µM"}, {"measurement": "ED50", "setting": "[16]", "value": 1.13, "unit": "µM"}, {"measurement": "ED50", "setting": "[17]", "value": 4.56, "unit": "µM"}, {"measurement": "ED50", "setting": "[18]", "value": 0.311, "unit": "µM"}, {"measurement": "ED50", "setting": "[19]", "value": 0.0839, "unit": "µM"}, {"measurement": "ED50", "setting": "[20]", "value": 1560, "unit": "µM"}, {"measurement": "ED50", "setting": "[21]", "value": 0.00542, "unit": "µM"}, {"measurement": "ED50", "setting": "[22]", "value": 9.35, "unit": "µM"}, {"measurement": "ED50", "setting": "[23]", "value": 0.0505, "unit": "µM"}, {"measurement": "ED50", "setting": "[24]", "value": 1.88, "unit": "µM"}, {"measurement": "ED50", "setting": "[25]", "value": 107, "unit": "µM"}, {"measurement": "ED50", "setting": "[26]", "value": 0.0871, "unit": "µM"}, {"measurement": "ED50", "setting": "[27]", "value": 4.5, "unit": "µM"}, {"measurement": "ED50", "setting": "[28]", "value": 47.8, "unit": "µM"}, {"measurement": "ED50", "setting": "[29]", "value": 511, "unit": "µM"}, {"measurement": "ED50", "setting": "[30]", "value": 0.135, "unit": "µM"}, {"measurement": "ED50", "setting": "[31]", "value": 1910, "unit": "µM"}, {"measurement": "ED50", "setting": "[32]", "value": 0.083, "unit": "µM"}, {"measurement": "ED50", "setting": "[33]", "value": 0.00782, "unit": "µM"}, {"measurement": "ED50", "setting": "[34]", "value": 0.213, "unit": "µM"}, {"measurement": "ED50", "setting": "[35]", "value": 0.117, "unit": "µM"}, {"measurement": "ED50", "setting": "[36]", "value": 0.0663, "unit": "µM"}, {"measurement": "ED50", "setting": "[37]", "value": 0.0528, "unit": "µM"}, {"measurement": "ED50", "setting": "[38]", "value": 0.0135, "unit": "µM"}, {"measurement": "ED50", "setting": "[39]", "value": 83.4, "unit": "µM"}, {"measurement": "ED50", "setting": "[40]", "value": 1.17, "unit": "µM"}, {"measurement": "ED50", "setting": "[41]", "value": 0.0386, "unit": "µM"}, {"measurement": "ED50", "setting": "Emerin (Homo sapiens)", "value": 0.501, "unit": "µM"}, {"measurement": "ED50", "setting": "[42]", "value": 1.52, "unit": "µM"}, {"measurement": "ED50", "setting": "[43]", "value": 0.0801, "unit": "µM"}, {"measurement": "ED50", "setting": "[44]", "value": 627, "unit": "µM"}]}
